From ChEMBL document CHEMBL5034034 (J Med Chem, 2021)
Calls of active or inactive are those of the source. No cut-off for these calls is given here.

Columns and labels:
[1] = molecular target: T1, Proprotein convertase subtilisin/kexin type 9 (Homo sapiens, UniProt Q8NBP7); assay: Inhibition of human PCSK9 using Alexa Fluor […] as substrate incubated for 2 hrs by FRET assay
Sus scrofa [2] = organism: Sus scrofa; assay: Stability of the compound assessed as porcine pancreatic elastase-mediated parent compound depletion by measuring parent compound remaining after 1 hr by LC-MS/MS analysis
[3] = AUC extrapolated in Wistar Han rat at 5 mg/kg, id measured upto 24 hrs by LC-MS/MS analysis; assay type: ADME, organism-based; conditions: in vivo, other
[4] = AUC(0 to infinity) in Wistar Han rat at 5 mg/kg, id measured upto 24 hrs by LC-MS/MS analysis; assay type: ADME, organism-based; parameters: dose 5 mg/kg, time <=24; conditions: in vivo
[5] = Metabolic stability in cynomolgus monkey whole blood assessed as half life measured upto 6 hrs by LC-MS/MS analysis; assay type: ADME, tissue-based, Macaca fascicularis
[6] = molecular target: T1, Proprotein convertase subtilisin/kexin type 9; assay: Inhibition of human PCSK9 using Alexa Fluor […] as substrate incubated for 2 hrs by FRET plus assay
[7] = molecular target: T1, Proprotein convertase subtilisin/kexin type 9; assay: Inhibition of human PCSK9 using Alexa Fluor […] as substrate incubated for 2 hrs by FRET ultra assay
[8] = molecular target: T2, Solute carrier organic anion transporter family member 1B1 (Homo sapiens, UniProt Q9Y6L6); assay: Inhibition of OATP1B1 (unknown origin) expressed in HEK293 cells assessed as reduction in OATP 1B1-mediated [3H]-pitavastatin uptake preincubated for 30 mins followed by [3H]-pitavastatin addition and measured after 2 mins by liquid scintillation analysis; assay type: cell-based
T2 sequence (Q9Y6L6 whole entry): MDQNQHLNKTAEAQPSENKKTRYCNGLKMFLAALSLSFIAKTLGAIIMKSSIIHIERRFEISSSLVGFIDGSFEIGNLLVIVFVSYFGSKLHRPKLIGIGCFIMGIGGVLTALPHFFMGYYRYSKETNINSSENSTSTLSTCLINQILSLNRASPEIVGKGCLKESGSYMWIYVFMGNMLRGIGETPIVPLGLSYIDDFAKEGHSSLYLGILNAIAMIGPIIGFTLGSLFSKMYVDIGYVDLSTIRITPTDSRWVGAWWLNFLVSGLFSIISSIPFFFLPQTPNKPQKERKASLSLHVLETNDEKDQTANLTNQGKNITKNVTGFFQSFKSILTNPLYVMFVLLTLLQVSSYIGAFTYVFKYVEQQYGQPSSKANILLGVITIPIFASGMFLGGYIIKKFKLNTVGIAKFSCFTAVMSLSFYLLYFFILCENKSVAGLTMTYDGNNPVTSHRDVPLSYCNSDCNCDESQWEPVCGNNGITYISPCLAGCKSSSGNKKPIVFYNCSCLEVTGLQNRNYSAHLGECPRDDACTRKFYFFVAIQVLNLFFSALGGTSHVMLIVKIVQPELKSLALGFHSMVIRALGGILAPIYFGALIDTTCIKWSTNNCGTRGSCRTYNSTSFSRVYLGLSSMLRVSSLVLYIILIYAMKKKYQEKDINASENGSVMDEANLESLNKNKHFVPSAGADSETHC

Bos taurus = organism: Bos taurus; assay: Stability of the compound assessed as bovine pancreas alpha chymotrypsin-mediated parent compound depletion by measuring parent compound remaining after 1 hr by LC-MS/MS analysis
Sus scrofa [9] = organism: Sus scrofa; assay: Stability of the compound assessed as porcine pepsin-mediated parent compound depletion by measuring parent compound remaining after 1 hr by LC-MS/MS analysis
[10] = Stability of the compound assessed as bovine pancreatic trypsin-mediated parent compound depletion by measuring parent compound remaining after 1 hr by LC-MS/MS analysis; assay type: ADME, Bos taurus; conditions: cattle, read-out: Stability
[11] = Cmax in Wistar Han rat at 5 mg/kg, id measured upto 24 hrs by LC-MS/MS analysis; assay type: ADME, organism-based; parameters: dose 5 mg/kg, time <=24; conditions: in vivo
[12] = Tmax in Wistar Han rat at 5 mg/kg, id measured upto 24 hrs by LC-MS/MS analysis; assay type: ADME, organism-based; conditions: in vivo
[13] = Bioavailability in Wistar Han rat at 5 mg/kg, id measured upto 24 hrs by LC-MS/MS analysis; assay type: ADME, organism-based; conditions: in vivo
[14] = AUC(0 to infinity) in cynomolgus monkey at 0.2 mg/kg, iv measured upto 72 hrs by LC-MS/MS analysis; assay type: ADME, organism-based, Macaca fascicularis; parameters: route intravenous, dose 0.2 mg/kg, time <=72; conditions: in vivo
[15] = Clearance in cynomolgus monkey at 0.2 mg/kg, iv measured upto 72 hrs by LC-MS/MS analysis; assay type: ADME, organism-based, Macaca fascicularis; conditions: in vivo
[16] = Volume of distribution at steady state in cynomolgus monkey at 0.2 mg/kg, iv measured upto 72 hrs by LC-MS/MS analysis; assay type: ADME, organism-based, Macaca fascicularis; conditions: in vivo, read-out: Vdss
[17] = Half life in cynomolgus monkey at 0.2 mg/kg, iv measured upto 72 hrs by LC-MS/MS analysis; assay type: ADME, organism-based, Macaca fascicularis; conditions: in vivo
[18] = Protein binding in cynomolgus monkey at 0.2 mg/kg, iv measured upto 72 hrs by LC-MS/MS analysis; assay type: ADME, organism-based, Macaca fascicularis; conditions: in vivo, read-out: PB (converted)
[19] = Unbound clearance in cynomolgus monkey at 0.2 mg/kg, iv measured upto 72 hrs by LC-MS/MS analysis; assay type: ADME, organism-based, Macaca fascicularis; conditions: in vivo
Mast cell = assay: Induction of rat mast cells degranulation activity at 100 uM incubated for 30 mins; assay type: functional, tissue-based
[20] = Reduction in LDL-cholesterol levels in cynomolgus monkey at 0.2 mg/kg, iv after 48 hrs; assay type: functional, Macaca fascicularis; parameters: scale not given: the % may be the effect or the level left
Macaca fascicularis = assay: Reduction in LDL-cholesterol levels in cynomolgus monkey at 0.2 mg/kg, iv after 4 weeks; assay type: functional, organism-based
[21] = Reduction in unbound PCSK9 levels in cynomolgus monkey at 0.2 mg/kg, iv after 24 to 48 hrs; assay type: functional, Macaca fascicularis; parameters: scale not given: the % may be the effect or the level left; conditions: time 24-48 hrs
[22] = AUC(0 to infinity) in Wistar Han rat at 1 mg/kg, iv measured upto 24 hrs by LC-MS/MS analysis; assay type: ADME, organism-based; parameters: route intravenous, dose 1 mg/kg, time <=24; conditions: in vivo
[23] = Clearance in Wistar Han rat at 1 mg/kg, iv measured upto 24 hrs by LC-MS/MS analysis; assay type: ADME, organism-based; conditions: in vivo
[24] = Volume of distribution at steady state in Wistar Han rat at 1 mg/kg, iv measured upto 24 hrs by LC-MS/MS analysis; assay type: ADME, organism-based; conditions: in vivo, read-out: Vdss
[25] = Half life in Wistar Han rat at 1 mg/kg, iv measured upto 24 hrs by LC-MS/MS analysis; assay type: ADME, organism-based; conditions: in vivo
[26] = Protein binding in Wistar Han rat at 1 mg/kg, iv measured upto 24 hrs by LC-MS/MS analysis; assay type: ADME, organism-based; conditions: in vivo, read-out: PB (converted)
[27] = Unbound clearance in Wistar Han rat at 1 mg/kg, iv measured upto 24 hrs by LC-MS/MS analysis; assay type: ADME, organism-based; conditions: in vivo

T1 sequence (Q8NBP7 31-152 limits assumed): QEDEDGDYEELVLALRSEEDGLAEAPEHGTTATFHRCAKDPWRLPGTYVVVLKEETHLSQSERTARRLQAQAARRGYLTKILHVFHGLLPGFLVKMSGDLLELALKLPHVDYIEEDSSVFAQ
T1 sequence (Q8NBP7 153-692 limits assumed): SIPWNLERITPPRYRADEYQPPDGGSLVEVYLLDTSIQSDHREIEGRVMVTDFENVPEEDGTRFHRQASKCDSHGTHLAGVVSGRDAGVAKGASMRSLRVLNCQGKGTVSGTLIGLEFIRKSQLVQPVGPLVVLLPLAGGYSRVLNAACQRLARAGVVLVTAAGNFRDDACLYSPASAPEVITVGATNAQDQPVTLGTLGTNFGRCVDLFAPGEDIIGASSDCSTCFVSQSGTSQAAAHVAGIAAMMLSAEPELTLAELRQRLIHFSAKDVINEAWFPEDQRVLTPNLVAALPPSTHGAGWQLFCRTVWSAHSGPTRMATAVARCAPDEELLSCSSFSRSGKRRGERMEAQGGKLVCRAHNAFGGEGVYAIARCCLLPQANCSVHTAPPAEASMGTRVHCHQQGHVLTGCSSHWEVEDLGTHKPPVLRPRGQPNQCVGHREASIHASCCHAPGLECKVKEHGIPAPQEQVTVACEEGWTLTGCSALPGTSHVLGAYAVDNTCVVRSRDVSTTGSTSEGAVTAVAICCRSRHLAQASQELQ

SMILES: COc1ccc(C[C@@H]2NC(=O)[C@H]([C@@H](C)O)NC(=O)[C@@H]3[C@@H]4CCN3C(=O)[C@H](Cc3c[nH]c5ccc(F)cc35)NC(=O)[C@H](Cc3cccc(c3)C/C=C\CO4)NC(=O)[C@@H](C)NC(=O)[C@H](C)NC(=O)CCSCc3cccc(c3)CSCCNC(=O)[C@]3(C)CCCN3C2=O)cc1
- Ki [1]: 4.66 nM

SMILES: COc1ccc(C[C@@H]2NC(=O)[C@H]([C@H](C)OC)NC(=O)[C@@H]3[C@@H]4CCN3C(=O)[C@H](Cc3c[nH]c5ccc(F)cc35)NC(=O)[C@H](Cc3cccc(c3)C/C=C\CO4)NC(=O)[C@H](C)NC(=O)[C@H](CN)NC(=O)CCSCc3cccc(c3)CSCCNC(=O)[C@]3(C)CCCN3C2=O)cc1
- Ki [1]: 4.36 nM

SMILES: COc1ccc(C[C@@H]2NC(=O)[C@H]([C@@H](C)OC)NC(=O)[C@@H]3[C@@H]4CCN3C(=O)[C@H](Cc3c[nH]c5ccc(F)cc35)NC(=O)[C@H](Cc3cccc(c3)CCCCO4)NC(=O)[C@@H](C)NC(=O)[C@H](C)NC(=O)CCSCc3cccc(c3)CSCCNC(=O)[C@]3(C)CCCN3C2=O)cc1
- Ki [1]: 2.17 nM

SMILES: COc1ccc(C[C@@H]2NC(=O)[C@H]([C@@H](C)OC)NC(=O)[C@@H]3[C@@H]4CCN3C(=O)[C@H](Cc3c[nH]c5ccc(F)cc35)NC(=O)[C@H](Cc3cccc(c3)C/C=C\CO4)NC(=O)[C@@H](C)NC(=O)[C@H](C)NC(=O)CCSCc3cccc(c3)CSCCNC(=O)[C@]3(C)CCCN3C2=O)cc1
- Ki [1]: 4.83 nM

SMILES: COc1ccc(C[C@@H]2NC(=O)[C@H]([C@@H](C)O)NC(=O)[C@@H]3[C@@H]4CCN3C(=O)[C@@H]3Cc5cn(c6ccc(F)cc56)Cc5cn(nn5)-c5cc(cc(c5)CSCCC(=O)N[C@@H](C)C(=O)N[C@H](CNC(=O)CCOCCOCC[N+](C)(C)C)C(=O)N[C@@H](Cc5cccc(c5)C/C=C/CO4)C(=O)N3)CSCCNC(=O)[C@]3(C)CCCN3C2=O)cc1
- Stability (Sus scrofa [2]): 92.6%
- %AUCextra [3]: 3%
- AUC(0-inf) [4]: 0.497 µM·h
- half-life [5]: > 6 h
- Ki [1]: < 0.129 nM
- Ki [6]: 0.00736 nM
- Ki [7]: 0.00093 nM
- EC50 [8]: 2500 nM
- Stability (Bos taurus): 95.3%
- Stability (Sus scrofa [9]): 99%
- remaining at 1 h [10]: 100%
- Cmax [11]: 178 nM
- Tmax [12]: 0.3 h
- bioavailability [13]: 1.4%
- AUC(0-inf) [14]: 0.762 µM·h
- clearance [15]: 2.7 mL/min/kg
- Vd [16]: 1.2 L/kg
- half-life [17]: 10.1 h
- fraction unbound at 72 h [18]: 0.256
- CL free [19]: 10.6 mL/min/kg
- Activity (Mast cell): inactive
- Activity [20]: >50%
- Activity (Macaca fascicularis): inactive
- Activity [21]: >80%

SMILES: COc1ccc(C[C@@H]2NC(=O)[C@H]([C@@H](C)O)NC(=O)[C@@H]3[C@@H]4CCN3C(=O)[C@@H]3Cc5cn(c6ccc(F)cc56)Cc5cn(nn5)-c5cc(cc(c5)CSCCC(=O)N[C@@H](CN)C(=O)N[C@H](C)C(=O)N[C@@H](Cc5cccc(c5)C/C=C\CO4)C(=O)N3)CSCCNC(=O)[C@]3(C)CCCN3C2=O)cc1
- Ki [6]: 0.037 nM
- Activity (Mast cell): inactive

SMILES: COc1ccc(C[C@@H]2NC(=O)[C@H]([C@@H](C)O)NC(=O)[C@@H]3[C@@H]4CCN3C(=O)[C@@H]3Cc5cn(c6ccc(F)cc56)Cc5cn(nn5)-c5cc(cc(c5)CSCCC(=O)N[C@@H](CN)C(=O)N[C@H](C)C(=O)N[C@@H](Cc5cccc(c5)C/C=C/CO4)C(=O)N3)CSCCNC(=O)[C@]3(C)CCCN3C2=O)cc1
- Stability (Sus scrofa [2]): 96.5%
- %AUCextra [3]: 23.6%
- AUC(0-inf) [4]: 0.0215 µM·h
- Ki [1]: < 0.129 nM
- Ki [6]: 0.00826 nM
- Ki [7]: 0.0094 nM
- AUC(0-inf) [22]: 0.964 µM·h
- clearance [23]: 12.3 mL/min/kg
- Vd [24]: 3 L/kg
- half-life [25]: 5.9 h
- fraction unbound at 24 h [26]: 0.144
- CL free [27]: 85 mL/min/kg
- EC50 [8]: 600 nM
- Stability (Bos taurus): 90%
- Stability (Sus scrofa [9]): 100%
- remaining at 1 h [10]: 100%
- Cmax [11]: 12.4 nM
- Tmax [12]: 0.25 h
- bioavailability [13]: 0.45%
- Activity (Mast cell): inactive
